Measured values reported in patent US20180110754A1, “CENICRIVIROC FOR THE TREATMENT OF FIBROSIS” (Tobira Therapeutics, Inc., priority 2015, published 2018).

Columns and labels:
[1] = Study 202: treatment-emergent laboratory abnormalities (DAIDS grades; CPK, ALT, AST, bilirubin); type: in vivo
Source text: The number of subjects with graded treatment-emergent laboratory abnormalities in selected liver parameters of interest is shown in Table 34. No Grade 4 ALT or AST elevations were observed. Except for one Grade 3 AST elevation, all ALT and AST elevations were Grade 1 or Grade 2. […] All abnormalities in bilirubin were Grade 1 or Grade 2. […]

[2] = known short half-life; cited from earlier work
[3] = Mouse thioglycollate-induced peritonitis model: CVC plasma levels (LC/MS/MS); type: in vivo
Protocol: The lavage fluid was placed on wet ice pending processing for total and differential cell counts using the Advia analyzer. Following the lavage collection, a blood sample (0.7 mL) was collected from each mouse by intracardiac puncture or from the vena cava (collection time was recorded). 0.5 mL of blood was placed in an EDTA tube, transferred to clinical pathology and analyzed for differential cell counts using the Advia analyzer. 0.2 mL of blood was placed in a K2EDTA tube and processed to plasma. The plasma was collected by centrifugation (3000 rpm for 10 minutes at 4° C.) and placed on dry ice. The samples were analyzed to determine CVC plasma levels. After blood collection, the animals were then exsanguinated by sectioning of the abdominal aorta.
Animals received the test article by oral gavage from Days 1 to 5. The twice daily (BID) dosing in Groups 2 to 5 was separated by approximately 12 hours. Blood samples were collected on Day 6 for assessment of plasma levels. Samples were collected by intracardiac puncture or from the vena cava, placed in a K2EDTA tube, and processed to plasma. Samples were stored frozen at −70 to −90° until analyzed. Due to the sacrifice time (48 hours after thioglycollate administration) being dictated by the primary endpoint, samples were collected approximately 14 hours postdose for Groups 2-5 and 26 hours postdose for the remaining groups. No samples were collected for animals 105, 201, 303 and 503.

Mouse toxicity studies = type: in vivo; details: doses up to 2000 mg/kg/day, no surgical procedures
[4] = Phase 1 studies in healthy volunteer subjects; type: in vivo, human; details: single doses up to 800 mg, multiple daily doses up to 200 mg for 10 days
Source text: The frequency and magnitude of transaminase elevations observed across these studies was consistent with the pattern described for Phase 1 studies in scientific literature. […] In both studies and at all doses CVC presented a favorable adverse event profile. […] No clinically relevant changes in ECG parameters or changes for any vital sign parameters were observed during the 48-week treatment period. No apparent dose or exposure relationship for adverse events, laboratory abnormalities (including CPK, ALT, AST and bilirubin elevations) or dose-limiting toxicities were observed.

CCR5 = CCR5 (Homo sapiens, UniProt P51681); assay: RANTES-induced CCR5 internalization / CCR5 receptor occupancy in PBMCs (flow cytometry); type: cell-based
CCR5, sequence (P51681 whole entry): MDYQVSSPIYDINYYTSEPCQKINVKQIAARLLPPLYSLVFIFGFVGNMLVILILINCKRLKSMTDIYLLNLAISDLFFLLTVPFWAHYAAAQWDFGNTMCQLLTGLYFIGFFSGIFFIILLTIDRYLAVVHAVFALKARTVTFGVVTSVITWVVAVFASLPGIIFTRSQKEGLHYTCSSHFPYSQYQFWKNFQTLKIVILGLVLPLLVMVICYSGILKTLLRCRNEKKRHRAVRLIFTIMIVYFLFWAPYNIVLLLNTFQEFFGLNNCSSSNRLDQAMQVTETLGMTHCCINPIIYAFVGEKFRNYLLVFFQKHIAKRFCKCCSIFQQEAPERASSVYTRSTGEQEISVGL
Protocol: The capacity of each drug to inhibit CCR5 or CCR2 internalization was evaluated. Cell-surface expression of CCR5 and CCR2 was assessed by flow cytometry, and fluorescence values were converted into molecules of equivalent soluble fluorescence (MESF).

[5] = CVC 100 mg (N = 58), through Week 48
[6] = CVC 200 mg (N = 57), through Week 48

With `CCCCOCCOc1ccc(-c2ccc3c(c2)/C=C(/C(=O)Nc2ccc([S@@+]([O-])Cc4cncn4CCC)cc2)CCCN3CC(C)C)cc1` [CVC, (S)-8-[4-(2-Butoxyethoxy)phenyl]-1-isobutyl-N-(4-{[(1-propyl-1H-imidazol-5-yl)methyl]sulfinyl}phenyl)-1,2,3,4-tetrahydro-1-benzazocine-5-carboxamide] the “Fibrinogen decreased, worst Grade 4, n subjects” value [1, 5] was 0, the “Hemoglobin decreased (Grade 3 or 4), n subjects” value [1, 5] was 1 and the “Hemoglobin decreased, worst Grade 3, n subjects” value [1, 5] was 0. For the same molecule, the “Hemoglobin decreased, worst Grade 4, n subjects” value [1, 5] was 1, the “Neutrophils decreased (Grade 3 or 4), n subjects” value [1, 5] was 2 and the “Neutrophils decreased, worst Grade 3, n subjects” value [1, 5] was 2. The “Neutrophils decreased, worst Grade 4, n subjects” value [1, 5] was 0, the “Phosphate decreased (Grade 3 or 4), n subjects” value [1, 5] was 2 and the “Phosphate decreased, worst Grade 3, n subjects” value [1, 5] was 2. For the same molecule, the “Phosphate decreased, worst Grade 4, n subjects” value [1, 5] was 0, the “Prothrombin time/INR increased, worst Grade 3, n subjects” value [1, 5] was 0 and the “Prothrombin time/INR increased, worst Grade 4, n subjects” value [1, 5] was 1. For the same molecule, the “Subjects with Grade 3 or 4 increases in CPK” value ([1]; CVC 200 mg) was 9 subjects, the “Any graded (Grade 1-4) treatment-emergent laboratory abnormality, n subjects” value ([1]; CVC 200 mg (N = 57)) was 55 and the “Laboratory abnormality, worst Grade 1, n subjects” value ([1]; CVC 200 mg (N = 57)) was 16. The “Laboratory abnormality, worst Grade 2, n subjects” value ([1]; CVC 200 mg (N = 57)) was 27, the “Laboratory abnormality, worst Grade 3 (Any Grade 3 abnormality), n subjects” value ([1]; CVC 200 mg (N = 57)) was 9 and the “Laboratory abnormality, worst Grade 4 (Any Grade 4 abnormality), n subjects” value ([1]; CVC 200 mg (N = 57)) was 3. The “ALT, worst Grade 1, n subjects” value [1, 6] was 6, the “ALT, worst Grade 2, n subjects” value [1, 6] was 2 and the “ALT, worst Grade 3, n subjects” value [1, 6] was 0. The “ALT, worst Grade 4, n subjects” value [1, 6] was 0, the “AST, worst Grade 1, n subjects” value [1, 6] was 6 and the “AST, worst Grade 2, n subjects” value [1, 6] was 4. The “AST, worst Grade 3, n subjects” value [1, 6] was 0, the “AST, worst Grade 4, n subjects” value [1, 6] was 0 and the “Alanine aminotransferase (ALT) abnormality, any grade, n subjects” value [1, 6] was 8. The “Any Grade 3 or Grade 4 laboratory abnormality, n subjects” value [1, 6] was 12, the “Aspartate aminotransferase (AST) abnormality, any grade, n subjects” value [1, 6] was 10 and the “Aspartate aminotransferase (AST) increased (Grade 3 or 4), n subjects” value [1, 6] was 0. The “Bilirubin abnormality, any grade, n subjects” value [1, 6] was 3, the “Bilirubin, worst Grade 1, n subjects” value [1, 6] was 2 and the “Bilirubin, worst Grade 2, n subjects” value [1, 6] was 1. For the same molecule, the “Bilirubin, worst Grade 3, n subjects” value [1, 6] was 0, the “Bilirubin, worst Grade 4, n subjects” value [1, 6] was 0 and the “CPK increased, worst Grade 3, n subjects” value [1, 6] was 6. The “CPK increased, worst Grade 4, n subjects” value [1, 6] was 3, the “Creatine phosphokinase (CPK) increased (Grade 3 or 4), n subjects” value [1, 6] was 9 and the “Fibrinogen decreased (Grade 3 or 4), n subjects” value [1, 6] was 2. For the same molecule, the “Fibrinogen decreased, worst Grade 3, n subjects” value [1, 6] was 2, the “Fibrinogen decreased, worst Grade 4, n subjects” value [1, 6] was 0 and the “Hemoglobin decreased (Grade 3 or 4), n subjects” value [1, 6] was 0. For the same molecule, the “Hemoglobin decreased, worst Grade 3, n subjects” value [1, 6] was 0, the “Hemoglobin decreased, worst Grade 4, n subjects” value [1, 6] was 0 and the “Neutrophils decreased (Grade 3 or 4), n subjects” value [1, 6] was 0. The “Neutrophils decreased, worst Grade 3, n subjects” value [1, 6] was 0, the “Neutrophils decreased, worst Grade 4, n subjects” value [1, 6] was 0 and the “Phosphate decreased (Grade 3 or 4), n subjects” value [1, 6] was 2. The “Phosphate decreased, worst Grade 3, n subjects” value [1, 6] was 2, the “Phosphate decreased, worst Grade 4, n subjects” value [1, 6] was 0 and the “Prothrombin time/INR increased, worst Grade 3, n subjects” value [1, 6] was 0. The “Prothrombin time/INR increased, worst Grade 4, n subjects” value [1, 6] was 0, the Half-life in mice [2] was ~2 h and the “Plasma levels at the approximate trough (14 hours postdose)” value ([3]; BID dosing, Day 6) was “increased in a dose-related manner”. The concentration at 14.5 h ([3]; mouse, plasma, mice, Day 6, Group 3, 5 mg/kg/day (BID) oral, ~14 hours postdose (actual 14.5 hours), N=2, 3 of 5 samples below LLOQ (10 ng/mL)) was 13.5 ng/mL, the concentration at 15 h ([3]; mouse, plasma, mice, Day 6, Group 4, 20 mg/kg/day (BID) oral, ~14 hours postdose (actual 15 hours)) was 81.2 ± 22.8 ng/mL and the concentration at 15.5 h ([3]; mouse, plasma, mice, Day 6, Group 5, 100 mg/kg/day (BID) oral, ~14 hours postdose (actual 15.5 hours)) was 551 ± 253 ng/mL. The concentration at 28 h ([3]; mouse, plasma, mice, Day 6, Group 6, 20 mg/kg/day (QD) oral, ~26 hours postdose (actual 28 hours)) was 25.7 ± 8.1 ng/mL, the Tolerability (Mouse toxicity studies) was “well tolerated” and the Tolerability [4] was “generally well tolerated”. The receptor occupancy at […] (CCR5; CCR5, […] nM for CD4+ and 2.3 nM for CD8+ T-cells, ex vivo in humans) was ≥ 90%, the “CCR5 receptor occupancy at saturation” value (CCR5; CD4+ T cells) was ~91% and the “Effective concentration at which saturation of CCR5 was reached” value (CCR5; CD4+ T cells) was 3.1 nM. For the same molecule, the “CCR5 receptor occupancy at saturation” value (CCR5; CD8+ T cells) was ~90%, the “Effective concentration at which saturation of CCR5 was reached” value (CCR5; CD8+ T cells) was 2.3 nM and the “Cell-surface expression of CCR5” value (CCR5; in the absence of RANTES) was “increased cell-surface expression of CCR5”.
